These results are taken from PubChem BioAssay (NCI).

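In this assay, cells in 96-well plates receive the compound at five concentrations for 48 hours. Endpoints are linearly interpolated between the surrounding concentrations. GI50 = concentration required for 50% inhibition of growth. TGI marks complete inhibition of growth.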

Test systems include CAKI-1 renal; CCRF-CEM leukemia; K-562 leukemia; KM12 colon; M14 melanoma; OVCAR-3 ovarian; OVCAR-4 ovarian; OVCAR-5 ovarian; SF-295 CNS; SN12C renal; UACC-257 melanoma.
Assay in all cases: DTP human tumour cell line panel, 48 h

One may read the TGI as the concentration at which net growth stops. Low readings indicate greater sensitivity of the cells, high ones lower sensitivity of the cells. Consider `CC(C)(N)CO[C@H]1C[C@H]2CC[C@@]1(C)C2(C)C`, for which the TGI was 70.6 µM in the assay with CAKI-1 renal; 83.6 µM in the assay with CCRF-CEM leukemia; 43.3 µM in the assay with K-562 leukemia; 34 µM with KM12 colon; 31.4 µM in the assay with M14 melanoma; greater than 100 µM with OVCAR-3 ovarian. Further, the TGI with OVCAR-4 ovarian was 74.5 µM; in the assay on OVCAR-5 ovarian, 41.3 µM; with SF-295 CNS it was 39.3 µM; with SN12C renal it was greater than 100 µM; in the assay with UACC-257 melanoma, 34.7 µM.

Take `COc1ccc(NS(=O)c2ccc(-c3ccccc3)cc2)cc1` (stereo not given): the TGI in the assay with CAKI-1 renal, in the assay on CCRF-CEM leukemia, in the assay with K-562 leukemia, in the assay on KM12 colon, in the assay with M14 melanoma and with OVCAR-3 ovarian was greater than 100 µM in each case. Moreover, the TGI in the assay with OVCAR-5 ovarian, with SF-295 CNS, with SN12C renal and in the assay on UACC-257 melanoma was greater than 100 µM each time.

Turning to `NCC[Se][Se]CCN`, the TGI with CAKI-1 renal came to 22.8 µM; in the assay on CCRF-CEM leukemia it was 45.6 µM; in the assay with K-562 leukemia, 64 µM; in the assay with KM12 colon, 20.6 µM; in the assay with M14 melanoma it was 13.3 µM; in the assay with OVCAR-3 ovarian it was 28.3 µM. In addition, the TGI in the assay on OVCAR-4 ovarian came out at 32.1 µM; with OVCAR-5 ovarian, 17.6 µM; in the assay with SF-295 CNS, 11.5 µM; with SN12C renal, 21.5 µM; in the assay with UACC-257 melanoma, 20.4 µM.

Turning to `O=S1(=O)NNC(=NCc2ccc(Cl)c(Cl)c2)c2ccccc21`, the TGI in the assay with CAKI-1 renal is greater than 100 µM; in the assay with CCRF-CEM leukemia, 81 µM; in the assay on K-562 leukemia, greater than 100 µM; with KM12 colon it was greater than 100 µM; with M14 melanoma it was greater than 100 µM; in the assay with OVCAR-3 ovarian, greater than 100 µM. For the same compound, the TGI in the assay on OVCAR-4 ovarian, in the assay with OVCAR-5 ovarian, in the assay with SF-295 CNS, with SN12C renal and with UACC-257 melanoma was greater than 100 µM in each case.

Regarding `COc1cc2cc[n+](C)c(Cc3ccccc3)c2cc1OC`, the TGI in the assay with CCRF-CEM leukemia, with K-562 leukemia, with KM12 colon, in the assay on M14 melanoma, in the assay with OVCAR-3 ovarian and in the assay on OVCAR-4 ovarian was greater than 100 µM each time. For the same compound, the TGI with OVCAR-5 ovarian, with SF-295 CNS, in the assay on SN12C renal and in the assay on UACC-257 melanoma was greater than 100 µM in each case.

In the case of `CNC(C)Cc1ccccc1O` (stereo not given), the TGI in the assay with CAKI-1 renal, with CCRF-CEM leukemia, with K-562 leukemia, with KM12 colon, in the assay with M14 melanoma and in the assay with OVCAR-3 ovarian was greater than 100 µM in each case. In addition, the TGI with OVCAR-4 ovarian, with OVCAR-5 ovarian, in the assay on SF-295 CNS, with SN12C renal and in the assay with UACC-257 melanoma was greater than 100 µM throughout.

In the case of `Nc1ccc2c(c1)C1=NNC(=O)CC1C2` (stereo not given), the TGI with CAKI-1 renal was greater than 100 µM; in the assay with CCRF-CEM leukemia, greater than 100 µM; in the assay with K-562 leukemia, greater than 100 µM; in the assay with KM12 colon it was greater than 100 µM; in the assay with OVCAR-3 ovarian it was greater than 31.6 µM; in the assay on OVCAR-4 ovarian, greater than 100 µM. The TGI with OVCAR-5 ovarian, in the assay on SF-295 CNS, in the assay on SN12C renal and in the assay with UACC-257 melanoma was greater than 100 µM in each case.

With `CC1SC(c2ccccc2)N(Nc2c3ccccc3nc3ccccc23)C1=O` (stereo not given), the TGI in the assay on CAKI-1 renal, in the assay on CCRF-CEM leukemia, in the assay on K-562 leukemia, in the assay with KM12 colon, with M14 melanoma and with OVCAR-3 ovarian was greater than 100 µM throughout. Further, the TGI in the assay with OVCAR-4 ovarian, in the assay on OVCAR-5 ovarian, in the assay on SF-295 CNS, in the assay on SN12C renal and in the assay with UACC-257 melanoma was greater than 100 µM in each case.

As to `O=C(N/C(=C\c1ccccc1[N+](=O)[O-])c1nc2ccccc2[nH]1)c1ccccc1`, the TGI with CAKI-1 renal, with CCRF-CEM leukemia, in the assay on K-562 leukemia, in the assay with KM12 colon, in the assay on M14 melanoma and in the assay with OVCAR-3 ovarian was greater than 100 µM each time. Moreover, the TGI in the assay on OVCAR-4 ovarian, in the assay with OVCAR-5 ovarian, in the assay with SF-295 CNS and in the assay with SN12C renal was greater than 100 µM throughout.

As for `CCC(CS(=O)(=O)O)[N+](=O)[O-]` (stereo not given), the TGI in the assay with CAKI-1 renal, in the assay with CCRF-CEM leukemia, in the assay on K-562 leukemia, in the assay on KM12 colon, in the assay with M14 melanoma and with OVCAR-3 ovarian was greater than 100 µM throughout. Besides, the TGI with OVCAR-4 ovarian, in the assay on OVCAR-5 ovarian, in the assay on SF-295 CNS, in the assay on SN12C renal and in the assay with UACC-257 melanoma was greater than 100 µM throughout.

As usually defined, the GI50 is the concentration at which growth is held to half of that of the control. `CN1CCN(c2ccc(-c3ccc4ncc(C#N)c(Nc5ccc(F)c(Cl)c5)c4c3)cc2)CC1`: the GI50 was 1.01 µM in the assay with CAKI-1 renal; 2.2 µM in the assay with CCRF-CEM leukemia; 4.47 µM with KM12 colon; 1.72 µM with OVCAR-3 ovarian; 3.18 µM with OVCAR-4 ovarian; 4.74 µM in the assay with OVCAR-5 ovarian. Also, the GI50 with SF-295 CNS was 1.82 µM; with SN12C renal it was 3.04 µM. Further, the TGI in the assay on CAKI-1 renal was determined as 3.01 µM; in the assay with CCRF-CEM leukemia it was 6.52 µM; in the assay on KM12 colon it was 18.4 µM; with OVCAR-3 ovarian, 6.25 µM; with OVCAR-4 ovarian it was 25.6 µM; in the assay with OVCAR-5 ovarian it was 25.5 µM. Also, the TGI in the assay on SF-295 CNS amounted to 3.61 µM; in the assay with SN12C renal, 19.6 µM.

As for `CN(C)CCNc1ccc2ncnc3c2c1C(=O)c1ccccc1-3`, the TGI came out at 2.01 µM with CAKI-1 renal; 2.89 µM in the assay on CCRF-CEM leukemia; 6.75 µM with K-562 leukemia; 4.55 µM in the assay on KM12 colon; 1.42 µM with M14 melanoma; 10.1 µM with OVCAR-3 ovarian. For the same compound, the TGI with OVCAR-4 ovarian is 4.27 µM; in the assay on OVCAR-5 ovarian, 3.42 µM; in the assay with SF-295 CNS, 2.88 µM; in the assay with SN12C renal, 13.9 µM; in the assay on UACC-257 melanoma, 11.5 µM.

On to `O=[N+]([O-])c1ccc(N=Nc2c(O)ccc3cc(S(=O)(=O)O)ccc23)cc1`, for which the TGI with CAKI-1 renal, with CCRF-CEM leukemia, with K-562 leukemia, in the assay on KM12 colon, with M14 melanoma and with OVCAR-3 ovarian was greater than 100 µM throughout. The TGI in the assay with OVCAR-4 ovarian, in the assay with OVCAR-5 ovarian, in the assay with SF-295 CNS, in the assay on SN12C renal and in the assay with UACC-257 melanoma was greater than 100 µM throughout.

Take `C=C(C)[C@@H]1CC[C@]2(C)CC[C@]3(C)[C@H](CC[C@@H]4[C@@]5(C)CC[C@H](OC(=O)c6ccccc6)C(C)(C)[C@@H]5CC[C@]43C)[C@@H]12`: the TGI with CAKI-1 renal, in the assay with CCRF-CEM leukemia, with K-562 leukemia, in the assay on KM12 colon, in the assay on M14 melanoma and in the assay with OVCAR-3 ovarian was greater than 100 µM each time. Further, the TGI with OVCAR-4 ovarian, in the assay on OVCAR-5 ovarian, in the assay with SF-295 CNS, in the assay on SN12C renal and in the assay with UACC-257 melanoma was greater than 100 µM in each case.

Take `CO[C@H]1[C@@H](O)[C@@H](C)O[C@@H](O[C@H]2CC[C@@]3(C)[C@H](CC[C@@H]4[C@@H]3CC[C@]3(C)[C@@H](C5=CC(=O)OC5)CC[C@]43O)C2)[C@@H]1O`: the total growth inhibition concentration (TGI) was 0.0128 µM in the assay with CAKI-1 renal; 0.37 µM in the assay with CCRF-CEM leukemia; 0.371 µM in the assay with K-562 leukemia; 0.191 µM with KM12 colon; 0.0479 µM with M14 melanoma; 0.013 µM in the assay on OVCAR-3 ovarian. The TGI was determined as 0.0322 µM with OVCAR-4 ovarian, 0.0932 µM with OVCAR-5 ovarian, 0.157 µM in the assay with SF-295 CNS and 0.0446 µM in the assay with UACC-257 melanoma. The GI50 with K-562 leukemia was 0.00633 µM.

Regarding `O=c1[nH][nH]c(=O)[nH]1`, the TGI in the assay with CAKI-1 renal, in the assay with CCRF-CEM leukemia, with K-562 leukemia, in the assay on KM12 colon, in the assay with M14 melanoma and in the assay with OVCAR-3 ovarian was greater than 100 µM each time. Besides, the TGI with OVCAR-4 ovarian, in the assay on OVCAR-5 ovarian, in the assay on SF-295 CNS and in the assay on UACC-257 melanoma was greater than 100 µM each time.

Regarding `Cc1nc2ccccc2c(=O)n1-c1n[nH]c2ccccc12`, the TGI in the assay on CAKI-1 renal, in the assay on CCRF-CEM leukemia, with K-562 leukemia, with KM12 colon, in the assay with M14 melanoma and in the assay with OVCAR-3 ovarian was greater than 100 µM each time. The TGI in the assay with OVCAR-4 ovarian, with OVCAR-5 ovarian, with SF-295 CNS, in the assay with SN12C renal and in the assay with UACC-257 melanoma was greater than 100 µM throughout.

With `CCn1nc(C)c2c1C(=O)NC(C)C(=O)N2` (stereo not given), the TGI in the assay with CAKI-1 renal, in the assay with M14 melanoma, in the assay with OVCAR-3 ovarian, in the assay on OVCAR-4 ovarian, in the assay with OVCAR-5 ovarian and in the assay on SF-295 CNS was greater than 100 µM throughout. In addition, the TGI in the assay with SN12C renal and with UACC-257 melanoma was greater than 100 µM in each case.

Turning to `CC(CN(C)C)C(=O)c1ccccc1C(=O)O` (stereo not given), the TGI was 83.9 µM with CAKI-1 renal; 30.3 µM in the assay on CCRF-CEM leukemia; greater than 100 µM in the assay with K-562 leukemia; greater than 100 µM in the assay with KM12 colon; 76.6 µM in the assay with M14 melanoma; 54.1 µM with OVCAR-3 ovarian. The TGI with OVCAR-4 ovarian is greater than 100 µM; in the assay with OVCAR-5 ovarian, greater than 100 µM; in the assay on SF-295 CNS it was greater than 100 µM; in the assay on SN12C renal, 81.2 µM.
